According to ChEMBL document CHEMBL1153634, “Synthesis of novel triterpenoid (lupeol) derivatives and their in vivo antihyperglycemic and antidyslipidemic activity” (2009):
Calls of active or inactive are those of the source. The calls are words filed in the database; no cut-off is given here.

Key:
Rattus norvegicus [1] = assay: Antihyperglycemic activity in sucrose challenged albino Sprague-Dawley rat STZ-S model assessed as decrease in blood glucose level at 100 mg/kg, po preincubated 30 min before sucrose challenge measured 24 hrs after last dose; type: functional; set-up: scale not given: the % may be the effect or the level left
Rattus norvegicus [2] = assay: Antihyperglycemic activity in sucrose challenged albino Sprague-Dawley rat STZ-S model assessed as decrease in blood glucose level at 100 mg/kg, po preincubated 30 min before sucrose challenge measured 5 hrs after last dose; type: functional; set-up: scale not given: the % may be the effect or the level left
Syrian golden hamster [3] = assay: Antidyslipidemic activity in high fat diet fed dyslipidemic golden Syrian hamster model assessed as change in plasma HDL to cholesterol ratio at 50 mg/kg, po administered once daily from day 4 to day 10 measured on day 10 after 2 hrs of last dose relative to baseline; type: functional, Mesocricetus auratus
Syrian golden hamster [4] = assay: Antidyslipidemic activity in high fat diet fed dyslipidemic golden Syrian hamster model assessed as change in plasma cholesterol level at 50 mg/kg, po administered once daily from day 4 to day 10 measured on day 10 after 2 hrs of last dose relative to baseline; type: functional, Mesocricetus auratus
Syrian golden hamster [5] = assay: Antidyslipidemic activity in high fat diet fed dyslipidemic golden Syrian hamster model assessed as change in plasma glycerol level at 50 mg/kg, po administered once daily from day 4 to day 10 measured on day 10 after 2 hrs of last dose relative to baseline; type: functional, Mesocricetus auratus
Syrian golden hamster [6] = assay: Antidyslipidemic activity in high fat diet fed dyslipidemic golden Syrian hamster model assessed as change in plasma HDL-cholesterol level at 50 mg/kg, po administered once daily from day 4 to day 10 measured on day 10 after 2 hrs of last dose relative to baseline; type: functional, Mesocricetus auratus
Syrian golden hamster [7] = assay: Antidyslipidemic activity in high fat diet fed dyslipidemic golden Syrian hamster model assessed as change in plasma […] level at 50 mg/kg, po administered once daily from day 4 to day 10 measured on day 10 after 2 hrs of last dose relative to baseline; type: functional, Mesocricetus auratus
Syrian golden hamster [8] = assay: Antidyslipidemic activity in high fat diet fed dyslipidemic golden Syrian hamster model assessed as change in plasma triglyceride level at 50 mg/kg, po administered once daily from day 4 to day 10 measured on day 10 after 2 hrs of last dose relative to baseline; type: functional, Mesocricetus auratus
Syrian golden hamster [9] = assay: Antidyslipidemic activity in high fat diet fed dyslipidemic golden Syrian hamster model assessed as change in food intake at 50 mg/kg, po administered once daily from day 4 to day 10 measured on day 10 after 2 hrs of last dose relative to baseline; type: functional, Mesocricetus auratus
Syrian golden hamster [10] = assay: Antidyslipidemic activity in high fat diet fed dyslipidemic golden Syrian hamster model assessed as change in plasma triglyceride level at 108 mg/kg, po administered once daily from day 4 to day 10 measured on day 10 after 2 hrs of last dose; type: functional, Mesocricetus auratus
Syrian golden hamster [11] = assay: Antidyslipidemic activity in high fat diet fed dyslipidemic golden Syrian hamster model assessed as change in plasma HDL-cholesterol level at 108 mg/kg, po administered once daily from day 4 to day 10 measured on day 10 after 2 hrs of last dose; type: functional, organism-based; set-up: dose 108 mg/kg; conditions: Mesocricetus auratus
Syrian golden hamster [12] = assay: Antidyslipidemic activity in high fat diet fed dyslipidemic golden Syrian hamster model assessed as change in plasma HDL to cholesterol ratio at 108 mg/kg, po administered once daily from day 4 to day 10 measured on day 10 after 2 hrs of last dose; type: functional, Mesocricetus auratus
Syrian golden hamster [13] = assay: Antidyslipidemic activity in high fat diet fed dyslipidemic golden Syrian hamster model assessed as change in plasma glycerol level at 108 mg/kg, po administered once daily from day 4 to day 10 measured on day 10 after 2 hrs of last dose; type: functional, Mesocricetus auratus
Syrian golden hamster [14] = assay: Antidyslipidemic activity in high fat diet fed dyslipidemic golden Syrian hamster model assessed as change in plasma cholesterol level at 108 mg/kg, po administered once daily from day 4 to day 10 measured on day 10 after 2 hrs of last dose; type: functional, Mesocricetus auratus
Syrian golden hamster [15] = assay: Antidyslipidemic activity in high fat diet fed dyslipidemic golden Syrian hamster model assessed as change in plasma cholesterol level at 100 mg/kg, po administered once daily from day 4 to day 10 measured on day 10 after 2 hrs of last dose relative to baseline; type: functional, Mesocricetus auratus
Syrian golden hamster [16] = assay: Antidyslipidemic activity in high fat diet fed dyslipidemic golden Syrian hamster model assessed as change in plasma triglyceride level at 100 mg/kg, po administered once daily from day 4 to day 10 measured on day 10 after 2 hrs of last dose relative to baseline; type: functional, Mesocricetus auratus
Syrian golden hamster [17] = assay: Antidyslipidemic activity in high fat diet fed dyslipidemic golden Syrian hamster model assessed as change in plasma glycerol level at 100 mg/kg, po administered once daily from day 4 to day 10 measured on day 10 after 2 hrs of last dose relative to baseline; type: functional, Mesocricetus auratus
Syrian golden hamster [18] = assay: Antidyslipidemic activity in high fat diet fed dyslipidemic golden Syrian hamster model assessed as change in plasma HDL-cholesterol level at 100 mg/kg, po administered once daily from day 4 to day 10 measured on day 10 after 2 hrs of last dose relative to baseline; type: functional, Mesocricetus auratus
Syrian golden hamster [19] = assay: Antidyslipidemic activity in high fat diet fed dyslipidemic golden Syrian hamster model assessed as change in plasma HDL to cholesterol ratio at 100 mg/kg, po administered once daily from day 4 to day 10 measured on day 10 after 2 hrs of last dose relative to baseline; type: functional, Mesocricetus auratus
Syrian golden hamster [20] = assay: Antidyslipidemic activity in high fat diet fed dyslipidemic golden Syrian hamster model assessed as change in plasma free fatty acid level at 100 mg/kg, po administered once daily from day 4 to day 10 measured on day 10 after 2 hrs of last dose relative to baseline; type: functional, Mesocricetus auratus

Structure (SMILES) | Activity (Rattus norvegicus [1]) [%] | Activity (Rattus norvegicus [2]) [%] | Activity (Syrian golden hamster [3]) [%] | Activity (Syrian golden hamster [4]) [%] | Activity (Syrian golden hamster [5]) [%] | Activity (Syrian golden hamster [6]) [%] | Activity (Syrian golden hamster [7]) [%] | Activity (Syrian golden hamster [8]) [%] | Activity (Syrian golden hamster [9]) [%] | further results
C=C(C)[C@@H]1CC[C@]2(C)CC[C@]3(C)[C@H](CC[C@@H]4[C@@]5(C)CC[C@H](OC(=O)CNC(=O)c6ccccc6)C(C)(C)[C@@H]5CC[C@]43C)[C@@H]12 | -23.6 | -13.8 | – | – | – | – | – | – | – | –
C=C(C)[C@@H]1CC[C@]2(C)CC[C@]3(C)[C@H](CC[C@@H]4[C@@]5(C)CC[C@H](OC(=O)Cc6ccc(OC)cc6)C(C)(C)[C@@H]5CC[C@]43C)[C@@H]12 | – | – | 24 | -25 | -8 | -5 | 4 | 20 | -4 | –
CC(C)OC(=O)C(C)(C)Oc1ccc(C(=O)c2ccc(Cl)cc2)cc1 [FENOFIBRATE] | – | – | – | – | – | – | – | – | – | Activity (Syrian golden hamster [10]): -42%; Activity (Syrian golden hamster [11]): inactive; Activity (Syrian golden hamster [12]): 10%; Activity (Syrian golden hamster [13]): -36%; Activity (Syrian golden hamster [14]): -18%
C=C(C)[C@@H]1CC[C@]2(C)CC[C@]3(C)[C@H](CC[C@@H]4[C@@]5(C)CC[C@H](OC(=O)c6ccc([N+](=O)[O-])cc6)C(C)(C)[C@@H]5CC[C@]43C)[C@@H]12 | -21.1 | -14.8 | 4 | -34 | -21 | -30 | 6 | -20 | 4 | –
C=C(C)[C@@H]1CC[C@]2(C)CC[C@]3(C)[C@H](CC[C@@H]4[C@@]5(C)CC[C@H](OC(=O)/C=C/c6cccs6)C(C)(C)[C@@H]5CC[C@]43C)[C@@H]12 | -14.9 | -12.5 | – | – | – | – | – | – | – | –
C=C(C)[C@@H]1CC[C@]2(C)CC[C@]3(C)[C@H](CC[C@@H]4[C@@]5(C)CC[C@H](OC(=O)Cc6ccccn6)C(C)(C)[C@@H]5CC[C@]43C)[C@@H]12 | -18.2 | -20.5 | – | – | – | – | – | – | – | –
C=C(C)[C@@H]1CC[C@]2(C)CC[C@]3(C)[C@H](CC[C@@H]4[C@@]5(C)CC[C@H](OC(=O)c6cccnc6)C(C)(C)[C@@H]5CC[C@]43C)[C@@H]12 | -25 | -18.3 | 57 | -24 | -30 | 5 | 2 | -40 | 8 | –
C=C(C)[C@@H]1CC[C@]2(C)CC[C@]3(C)[C@H](CC[C@@H]4[C@@]5(C)CC[C@H](OC(=O)/C=C/c6ccsc6)C(C)(C)[C@@H]5CC[C@]43C)[C@@H]12 | -21.5 | -16.9 | – | – | – | – | – | – | – | –
C=C(C)[C@@H]1CC[C@]2(C)CC[C@]3(C)[C@H](CC[C@@H]4[C@@]5(C)CC[C@H](OC(=O)/C=C/c6ccco6)C(C)(C)[C@@H]5CC[C@]43C)[C@@H]12 | -18.5 | -15.8 | – | – | – | – | – | – | – | –
C=C(C)[C@@H]1CC[C@]2(C)CC[C@]3(C)[C@H](CC[C@@H]4[C@@]5(C)CC[C@H](OC(=O)c6ccc7ccccc7n6)C(C)(C)[C@@H]5CC[C@]43C)[C@@H]12 | – | – | -5 | -27 | -20 | -30 | -8 | -7 | 11 | –
CN(C)C(=N)NC(=N)N [METFORMIN] | -26.5 | -23.5 | – | – | – | – | – | – | – | –
C=C(C)[C@@H]1CC[C@]2(C)CC[C@]3(C)[C@H](CC[C@@H]4[C@@]5(C)CC[C@H](OC(=O)c6ccc(Cl)cc6)C(C)(C)[C@@H]5CC[C@]43C)[C@@H]12 | -19.6 | -17.8 | 14 | -27 | -14 | -14 | 5 | -11 | 4 | –
C=C(C)[C@@H]1CC[C@]2(C)CC[C@]3(C)[C@H](CC[C@@H]4[C@@]5(C)CC[C@H](O)C(C)(C)[C@@H]5CC[C@]43C)[C@@H]12 [LUPEOL] | – | – | – | – | – | – | – | – | – | Activity (Syrian golden hamster [15]): -9%; Activity (Syrian golden hamster [16]): -26%; Activity (Syrian golden hamster [17]): -10%; Activity (Syrian golden hamster [18]): 44%; Activity (Syrian golden hamster [19]): 63%; Activity (Syrian golden hamster [20]): -23%
C=C(C)[C@@H]1CC[C@]2(C)CC[C@]3(C)[C@H](CC[C@@H]4[C@@]5(C)CC[C@H](OC(=O)/C=C/c6cccnc6)C(C)(C)[C@@H]5CC[C@]43C)[C@@H]12 | -15.7 | -13.4 | – | – | – | – | – | – | – | –
C=C(C)[C@@H]1CC[C@]2(C)CC[C@]3(C)[C@H](CC[C@@H]4[C@@]5(C)CC[C@H](OC(=O)CCc6cccnc6)C(C)(C)[C@@H]5CC[C@]43C)[C@@H]12 | -10.4 | -8.21 | – | – | – | – | – | – | – | –
